Data: patent publication US8859287B2, “Compositions and methods for treatment of cancer using tissue-specific oncolytic adenoviruses” (The Johns Hopkins University, priority 2009, dated 2014)

Tests used:
[1] = system: C4-2 cells; test: MTS assay, growth inhibition and cytotoxicity, virus alone or with adriamycin; type: cell-based; settings: adriamycin alone 0.1 μg/ml; by 72 hours
Procedure: 3-(4,5)-Dimethylthiazol-2-yl)-5-(3-carboxy-methoxyphenyl)-2-(4-sulfophenyl)-2H-tetrazolium (MTS) assay: The metabolic viability of the cells was monitored using a MTS assay kit (CellTiter 96) from Promega (Madison, Wis.). Briefly cells are seeded onto 96-well plates and cultured in the presence of test agents for indicated time intervals. A mixture of MTS and phenazine methosulfate (an electron-coupling reagent; final concentrations 333 μg/ml and 25 μM, respectively) is added, and cells are incubated for 30 minutes at 37° C. Formazan formed from the reduction of MTS is quantified by measurement of absorbance of the medium at 490 nm using a microplate reader (All data have been normalized to the background signals).
Combinatory studies of Adriamycin with Ad5-RV004.21 or Ad5-RV004 virus in C4-2 cells: Combination treatment of viruses with radiation or chemotherapy hold promise as a new strategy for cancer treatment. However, there are reports of attenuated cytotoxicity of CRAds when combined with chemotherapies (e.g., doxorubicin). […] Cell cytotoxicity is measured by MTS assay after 72 hours of treatment and followed every 24 hours for a total of 7 days. […] The predicted value for the combinatory effect can be calculated and is given by the dotted gray line.

[2] = system: p21/Waf-1 knockdown C4-2 cells; test: Cell death of p21/Waf-1 knockdown C4-2 cells treated with drug; type: cell-based

COc1cccc2c1C(=O)c1c(O)c3c(c(O)c1C2=O)C[C@@](O)(C(=O)CO)C[C@@H]3O[C@H]1C[C@H](N)[C@H](O)[C@H](C)O1 [adriamycin]
C4-2 cells killed [1]: ~50% | cell death in p21/Waf-1 knockdown C4-2 cells compared to the wild type cell lines [2]: increase in cell death
